Experimental data taken from patent publication US20230172873A1, “Uses and Formulations of Cannabinoids” (priority 2020, published 2023).
Read-outs that look alike come from different tables or passages of the source.

Columns and labels:
microglial cells = details: 1-16 µmol/l (Wu et al. 2012); cited from earlier work
NK, NKT, T and B cells = details: healthy rats, cited from earlier work
[1] = test system: activated memory T cell line; details: 1-5 µmol/l (Kozela et al. 2013), cited from earlier work
CD83 = details: dendritic cells derived from individuals with HIV infection; cited from earlier work
human mononuclear cells = details: nanomolar or micromolar concentrations; cited from earlier work
[2] = log P (n-octanol/water partition coefficient); format: physicochemical; details: active ingredient of Example 9
Description: In fact, cannabinoids are highly lipophilic molecules (log P 6-7) with very low water solubility (2-10 µg / ml). The log P is the decimal logarithm of the n-octanol/water partition coefficient. The partition coefficient can be determined experimentally. Values typically refer to room temperature (25° C.). The partition coefficient can also be roughly calculated from the molecular structure.

[3] = test system: LPS-induced acute lung injury; details: cited from earlier work
human neutrophils = details: McHugh et al. 2008; cited from earlier work
[4] = test system: chemically induced acute hepatitis; details: mice, cited from earlier work
[5] = test system: ischemia-reperfusion-induced kidney injury; details: mice, cited from earlier work
[6] = Systemic exposure after i.p. and oral application of CBD in mice; format: in vivo; details: 20 mg/kg; assuming dose-proportional plasma concentrations
Description: A comparative investigation for systemic exposure after i.p. and oral application of CBD in mice and rats has shown that 120 mg/kg as a single dose leads to a maximum plasma concentration of 14,000 ng/ml in mice (S. Deiana et al. (2012). Plasma and brain pharmacokinetic profile of cannabidiol (CBD), cannabidivarine (CBDV), Delta(9)-tetrahydrocannabivarin (THCV) and cannabigerol (CBG) in rats and mice following oral and intraperitoneal administration and CBD action on obsessive-compulsive behaviour. Psychopharmacology (Berl) 219(3): 859-73).

inflammatory processes = details: cited from earlier work
[7] = test system: LPS-induced acute lung injury; details: mice, 20 mg/kg, cited from earlier work
IL-6 secretion [8] = details: cellular models, majority of cases (Chen et al. 2016); cited from earlier work
IL-6 secretion [9] = details: conversion of the effective concentration
[10] = mice; 120 mg/kg single dose (Deiana et al. 2012); cited from earlier work
IL-6 receptor = biological target: T1, IL-6 receptor (Homo sapiens, UniProt P08887); details: patients with rheumatoid arthritis and systemic juvenile idiopathic arthritis; cited from earlier work
T1 sequence (P08887 20-468): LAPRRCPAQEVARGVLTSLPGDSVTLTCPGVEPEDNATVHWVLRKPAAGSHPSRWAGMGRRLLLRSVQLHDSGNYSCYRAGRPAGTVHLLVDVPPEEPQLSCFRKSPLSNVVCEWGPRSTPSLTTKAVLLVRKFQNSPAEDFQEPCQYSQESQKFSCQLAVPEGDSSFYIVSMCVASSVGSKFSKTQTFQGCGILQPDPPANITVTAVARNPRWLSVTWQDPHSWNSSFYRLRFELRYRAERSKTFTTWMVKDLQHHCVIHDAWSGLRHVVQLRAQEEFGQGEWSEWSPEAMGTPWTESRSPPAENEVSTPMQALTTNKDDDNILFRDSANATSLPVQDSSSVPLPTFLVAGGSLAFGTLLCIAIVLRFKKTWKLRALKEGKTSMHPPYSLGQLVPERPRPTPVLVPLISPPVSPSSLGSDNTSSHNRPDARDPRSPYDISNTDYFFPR

[11] = mice, 0.3-80 mg/kg i.p. 60 minutes before LPS (Ribeiro et al. 2012)

Compound: C=C(C)[C@@H]1CCC(C)=C[C@H]1c1c(O)cc(CCCCC)cc1O [CBD, 2-[(1R,6R)-3-methyl-6-(1-methylethenyl)-2-cyclohexen-1-yl]-5-pentyl-1,3-benzenediol]
- apoptosis in microglial cells (microglial cells): induces apoptosis
- numbers of natural killer (NK) cells and natural killer T (NKT) cells (NK, NKT, T and B cells; 2.5 mg/kg per day): increased
- numbers of natural killer (NK) cells and natural killer T (NKT) cells (NK, NKT, T and B cells; 5 mg/kg per day): not affected
- number of B cells (NK, NKT, T and B cells; daily 5 mg/kg): significantly reduced
- number of T cells including T helper cells and cytotoxic T cells (NK, NKT, T and B cells; daily 5 mg/kg): significantly reduced
- IL-6 production and secretion [1]: decreased
- production of IL-10 [1]: increased
- autoantigen-specific Th17 cell phenotype (Th17 signature cytokine IL-17) ([1]; dose-dependently): reduces
- CD83 dendritic cell activation marker (CD83): suppresses
- release of pro-inflammatory cytokines (human mononuclear cells): suppressed
- logP [2]: ~6.1
- number of leukocytes including macrophages and neutrophils in the bronchoalveolar lavage fluid ([3]; mice, 20 mg/kg, after LPS-induced lung inflammation): decreases
- Total leukocytes migration [3, 11]: significantly decreased
- myeloperoxidase activity [3, 11]: significantly decreased
- pro-inflammatory cytokine production including TNF-a and IL-6 [3, 11]: significantly decreased
- vascular permeability [3, 11]: significantly decreased
- dose at which effects reached a nearly maximum extent ([3]; prophylactic application, i.p.): 20 mg/kg
- migration of human neutrophils (human neutrophils): inhibits
- expression of MDSCs ([4]; 25 mg/kg (Hegde et al. 2011)): induces the expression of MDSCs
- pro-inflammatory cytokines such as IL-2, TNF-α and IL-6 ([4]; 25 mg/kg): reduction
- kidney protection ([5]; 10 mg/kg after induced kidney injury (Baban et al. 2018)): renoprotective
- decreased Treg17 and increased Th17 levels ([5]; 10 mg/kg after induced kidney injury): reversed these effects
- target peak exposure [6]: 2,300 ng/ml
- circulating IL-6 (inflammatory processes; animal models including diabetes, asthma, pancreatitis and hepatitis (Nichols and Kaplan 2020)): suppress
- regulatory T cells (Tregs) (inflammatory processes; several disease models (Nichols and Kaplan 2020)): induce regulatory T cells (Tregs)
- mechanical lung function ([7]; 6 h after LPS (Ribeiro et al. 2014)): improved
- leukocyte migration (neutrophil, macrophages and lymphocytes) into the lungs ([7]; 6 h after LPS): decreased
- myeloperoxidase activity in the lung tissue ([7]; 6 h after LPS): decreased
- production of proinflammatory cytokines/chemokines ([7]; 6 h after LPS): reduced
- vascular permeability ([7]; 6 h after LPS): reduced
- effective concentration for suppressive effect on IL-6 secretion (IL-6 secretion [8]): ~5 µM
- resulting concentration (5 µM converted with molecular weight 314.5 g/mol) (IL-6 secretion [9]): 1,570 ng/ml
- maximum plasma concentration [10]: 14,000 ng/ml

Compound: tocilizumab: a humanized anti-IL-6 receptor antibody
- efficacy (IL-6 receptor): verified its efficacy
- safety (IL-6 receptor): tolerable safety
